Experimental data reported in patent US11613775B2, “Measuring DNA polymerase fidelity” (Northwestern University, priority 2017, dated 2023).
Like-named read-outs stand apart in the source and are kept apart here.

Assays:
[1] = previously reported; cited from earlier work
[2] = previously reported; cited from earlier work; remark: listed apart in the source
[3] = tested on: extension templates (TT, TA, TC, and TG); test: Nucleotide imbalance fidelity assay (rare base titration, NGS readout); format: biochemical
From the text: Extension templates (TT, TA, TC, and TG) were designed for all four rare base contexts (Table 2). Templates were 100 bp in length and contained a single T, A, C, or G, or Error-Enriched Site (EES), near the middle of the template. Extension templates were designed to contain only three bases, with the exception of the EES (fourth base) and the extension primer-binding site. For each template type, the EES was flanked by 3 degenerate bases before the EES and 3 degenerate bases after the EES in order to create the following sequence context libraries: VVVTVVV, BBBABBB, DDDCDDD, and HHHGHHH (using IUPAC ambiguity codes). Because each of the 6 degenerate sites can be composed of 3 possible bases, each template library contained 729 (3^6) unique sequence contexts surrounding the EES. With the exception of the 6 bases flanking the EES, template sequences within a given library were identical. All templates contained a 3′ dideoxy-C modification to prevent extension from the template strand during a final PCR amplification step. Extension templates were purified via PAGE (Integrated DNA Technologies).
Individual annealing reactions were performed for each template type (TT, TA, TC, TG). Primer/template DNA was prepared by mixing PEXT with each template library in a 1:1.5 molar ratio (70 nM primer: 105 nM template) in a 1× reaction buffer specific to each DNA polymerase being tested (Table 1). The extension primer was annealed to template DNA by incubation at 95° C. for 2 minutes, followed by a −0.1° C./sec ramp until reaching 4° C.
Primer extension reactions were set up in duplicate for each condition being tested. Biological replicate reactions were performed in parallel, with the same annealed primer/template sample used for both replicates. For each DNA polymerase and rare base context of interest, 9 rare base concentrations were tested (log-fold dilutions from 10 μM-0.1 pM) while the concentration of the 3 non-rare bases was held constant at 10 μM (Bioline).
Primer extension reactions consisted of 1 μL of annealing reaction, 1× dNTP stocks ([…]+variable [dRTP]), variable DNA polymerase units, and 1×DNA polymerase reaction buffer in a 10 μL reaction. Extension reaction conditions for DNA polymerases tested are described in Table 1. Extension reactions were incubated for 1 hour and stored at −20° C. until purification. The Fluent Automated Liquid Handling Platform (Tecan) was used to set up all primer extension reactions.
The sample preparation pipeline for NGS was adapted from a previous protocol (Ref. 28; herein incorporated by reference in its entirety). Products from individual rare base extension reactions were column purified in 96-well plate format using the ZR-96 DNA Clean & Concentrator-5 (Deep well format) kit (Zymo Research). Purified DNA products were eluted in 10 μL of water and stored at −20° C. until ligation. Next, a 22 bp universal tag, common sequence 2 (CS2) of the Fluidigm Access Array Barcode Library for Illumina Sequencers (Fluidigm), synthesized as duplex DNA with a 5′ phosphate modification and PAGE purified (Integrated DNA Technologies, Table 2) was blunt-end ligated to the 3′ end of extended products. Ligation reactions were carried out in 10 μL volumes and consisted of 6 μL of purified product, 30 nM CS2 duplex DNA, 1× T4 DNA Ligase Reaction Buffer (New England Biolabs), and 2000 Units of T4 DNA Ligase (New England Biolabs). Ligation reactions were incubated at 16° C. for 16 hours. Ligated products were stored at −20° C. until PCR.
PCR was performed with barcoded primer sets from the Access Array Barcode Library for Illumina Sequencers (Fluidigm) to label extension products from up to 384 individual reactions. Each PCR primer set contained a unique barcode in the reverse primer. From 5′-3′, the forward PCR primer (PE1_CS1) contained a 25 base paired-end Illumina adapter 1 sequence followed by CS1. The binding target of the forward PCR primer was the reverse complement of the CS1 tag built into PEXT. […]

[4] = previously reported; cited from earlier work; remark: listed apart in the source
[5] = previously reported; cited from earlier work; remark: listed apart in the source
[6] = previously reported; cited from earlier work; remark: listed apart in the source
[7] = previously reported; cited from earlier work; remark: listed apart in the source
lacZ template = details: cited from earlier work
[8] = "C" template context, lowest [dRTP] tested (10^−7 μM)
[9] = All Four Contexts, fit of duplicate data from all four template contexts (n = 8), average FC50
[10] = BBBABBB template context, n = 2
[11] = DDDCDDD template context, n = 2
[12] = HHHGHHH template context, n = 2
[13] = VVVTVVV template context, n = 2

For “Taq: widely used commercial DNA polymerase (New England Biolabs)”, the “Error Rate” value [1] is given as 0.00018 errors/bp, the “Error Rate” value [2] is given as 0.0002 subs/bp and the preferred error type ([3]; "A" template context, lowest [dRTP] tested (10^−7 μM)) is given as “A:dATP”. The preferred error type [3, 8] was “C:dATP”, the preferred error type ([3]; "G" template context, lowest [dRTP] tested (10^−7 μM)) was “G:dTTP” and the FC50 [3, 9] was 0.00267 µM. For the same molecule, the FC50 [3, 10] was 0.00261 µM, the FC50 [3, 11] was 0.00215 µM and the FC50 [3, 12] was 0.00208 µM. For the same molecule, the FC50 [3, 13] was 0.00405 µM, the “Error Rate” value [4] was 0.00011 subs/bp and the “Error Rate” value [5] was 0.00021 errors/bp.

In the case of “Phi29: high fidelity polymerase with proofreading ability (New England Biolabs)”, the “Error Rate” value [6] is given as 0.000003 errors/bp, the preferred error type [3, 8] is given as “C:dTTP” and the FC50 [3, 9] is given as 0.000861 µM. The FC50 [3, 10] was 0.000877 µM, the preferred error type ([3]; DDDCDDD context, −1 G) was “C:dATP” and the preferred error type ([3]; DDDCDDD context, −1 T) was “C:dTTP”. The FC50 [3, 11] was 0.00125 µM, the FC50 [3, 12] was 0.00139 µM and the FC50 [3, 13] was 0.000475 µM. For the same molecule, the “estimated (FC50-derived) error rate versus mean of the two reported literature error rates” value ([3]; average FC50 converted with Equation 9) was 2.7 fold and the “Error Rate” value [7] was 0.0000095 errors/bp.

B1: Sulfolobus solfataricus Dpo4: a close homologue of S. islandicus Dpo4, literature data (protein, UniProt Q97W02 1-352, looked up)
DNA polymerase IV: MIVLFVDFDYFYAQVEEVLNPSLKGKPVVVCVFSGRFEDSGAVATANYEARKFGVKAGIPIVEAKKILPNAVYLPMRKEVYQQVSSRIMNLLREYSEKIEIASIDEAYLDISDKVRDYREAYNLGLEIKNKILEKEKITVTVGISKNKVFAKIAADMAKPNGIKVIDDEEVKRLIRELDIADVPGIGNITAEKLKKLGINKLVDTLSIEFDKLKGMIGEAKAKYLISLARDEYNEPIRTRVRKSIGRIVTMKRNSRNLEEIKPYLFRAIEESYYKLDKRIPKAIHVVAVTEDLDIVSRGRTFPHGISKETAYSESVKLLQKILEEDERKIRRIGVRFSKFIEAIGLDKFFDT
In the case of B1, the error preferences (lacZ template; at A sites) is listed as “A:dATP>A:dCTP>A:dGTP”, the error preferences (lacZ template; at C sites) is listed as “C:dCTP>C:dATP=C:dTTP” and the error preferences (lacZ template; at G sites) is listed as “G:dTTP>G:dGTP>G:dATP”. The error preferences (lacZ template; at T sites) was “T:dGTP>T:dCTP T:dTTP”.
